From patent publication US5994373A, “Substituted azacyclic compounds” (Novo Nordisk A/S Novo Alle DK 2880, priority 1995, dated 1999)
Where two headings read alike, the source gives them in different places.

Tests used:
[1] = tested on: nicotinic acetylcholine receptors; assay: inhibition of specific binding of ^3 H-methylcarbamylcholine (^3 H-MCC) in rat brain tissue; settings: rat cortical receptors; for Oxo/MCC Ratio: IC50 ^3 H-Oxo / IC50 ^3 H-MCC; for IC50: ^3 H-MCC 2 nM, 0° C., 60 min
Source text: The pharmacological properties of the compounds of the invention can be illustrated by determining their capability to inhibit the specific binding of ^3 H-methylcarbamylcholine (^3 H-MCC) (Abood and Grassi, Biochem. Pharmacol., Vol. 35, pp. 4199-4202, (1986)).
^3 H-MCC labels the nicotinic receptors in the CNS. The inhibitory effect on ^3 H-MCC binding reflects the affinity for nicotinic acetylcholine receptors.
Fresh or frozen rat, brain tissue (hippocampus or cortex) was homogenized in assay buffer (50 mM Tris-HCl, pH 7.4, 120 mM NaCl, 5 mM KCl, 2 mM CaCl2, 1 mM MgCl2) and centrifuged for 10 min. at 40.000×g. Pellets were subsequently reconstituted in assay buffer and an appropriate amount of tissue sample was mixed in tubes with ^3 H-methylcarbamylcholine (NEN, NET-951; final concentration 2 nM) and test drug. The tubes were incubated at 0° C. for 60 min. Unbound ligand was separated from bound ligand by vacuum filtration through GF/B filters presoaked in 0.5 % polyethylenimine. Filters were washed three times with 5 ml wash buffer (50 mM Tris-HCl, pH 7.4) and transferred to vials. 4 ml scintillation fluid was added and the radioactivity was measured by scintillation counting. Unspecific binding was measured with 10 μM nicotine.
The IC50 values of the test compounds were determined by nonlinear regression analyses (GraphPad InPlot).
Table I illustrates the affinity of the compounds of the present invention for nicotinic and muscarinic receptors as determined by ^3 H-MCC and ^3 H-Oxo binding to rat cortical receptors. The compounds, however, show selective affinity for nicotinic receptors as compared to muscarinic receptors, i.e OXO/MCC>1.

[2] = molecular target: muscarinic acetylcholine receptors; assay: inhibition of specific binding of ^3 H-Oxotremorine-M (^3 H-Oxo) in rat cortex; settings: rat cortical receptors; 1.0 nM radioligand, 25° C., 30 min
Source text: Furthermore, the pharmacological properties of the compounds of the invention can also be illustrated by determining their capability to inhibit the specific binding of ^3 H-Oxotremorine-M (^3 H-Oxo). Birdsdall N. J. M., Hulme E. C., and Burgen A. S. V. (1980). "The Character of Muscarinic Receptors in Different Regions of the Rat Brain". Proc. Roy. Soc. London (Series B) 207,1.
^3 H-Oxo labels muscarinic receptor in the CNS (with a preference for agonist domains of the receptors). Three different sites are labelled by ^3 H-Oxo. […] Using the present experimental conditions only the high and medium affinity sites are determined.
The inhibitory effects of compounds on ^3 H-Oxo binding reflects the affinity for muscarinic acetylcholine receptors.
All preparations are performed at 0-4° C. unless otherwise indicated. Fresh cortex (0.1-1 g) from male Wistar rats (150-250 g) is homogenized for 5-10 s in 10 ml 20 mM Hepes pH: 7.4, with an Ultra-Turrax homogenizer. The homogenizer is rinsed with 10 ml of buffer and the combined suspension centrifuged for 15 min. at 40,000×g. The pellet is washed three times with buffer. In each step the pellet is homogenized as before in 2×10 ml of buffer and centrifuged for 10 min. at 40,000×g.
The final pellet is homogenized in 20 mM Hepes pH: 7.4 (100 ml per g of original tissue) and used for binding assay. Aliquots of 0.5 ml is added 25 μl of test solution and 25 μl of ^3 H-Oxotremorine (1.0 nM, final concentration) mixed and incubated for 30 min. at 25° C. Non-specific binding is determined in triplicate using arecoline (1 μg/ml, final concentration) as the test substance. After incubation samples are added 5 ml of ice-cold buffer and poured directly onto Whatman GF/C glass fiber filters under suction and immediately washed 2 times with 5 ml of ice-cold buffer. The amount of radioactivity on the filters are determined by conventional liquid scintillation counting. Specific binding is total binding minus non specific binding.
Test substances are dissolved in 10 ml water (if necessary heated on a steam-bath for less than 5 min.) at a concentration of 2.2 mg/ml. 25-75% inhibition of specific binding must be obtained before calculation of IC50. The test value will be given as IC50 (the concentration (nM) of the test substance which inhibits the specific binding of ^3 H-Oxo by 50%).
IC50 =(applied test substance concentration)×(Cx /Co
where Co is specific binding in control assays and Cx is the specific binding in the test assay. (The calculations assume normal mass-action kinetics).
Table I illustrates the affinity of the compounds of the present invention for nicotinic and muscarinic receptors as determined by ^3 H-MCC and ^3 H-Oxo binding to rat cortical receptors. […]

attention and memory [3] = settings: healthy humans; cited from earlier work
dopamine release = settings: nucleus accumbens compared with striatum; cited from earlier work
dopaminergic effects = settings: various behavioral models; cited from earlier work
Tourette's syndrome = settings: in vivo; cited from earlier work
substantia nigra = settings: chronic nicotine; lesioning; cited from earlier work
prefrontal neurons = settings: cited from earlier work
attention and memory [4] = settings: Alzheimer's disease patients; cited from earlier work
[5] = molecular target: muscarinic acetylcholine receptors; settings: read-out: affinity of site labelled by ^3 H-Oxo, cited from earlier work
cognitive function = settings: age related; cited from earlier work

SMILES	Oxo/MCC Ratio [1]	IC50 [1] [µM]	IC50 [2] [µM]	further results
CN1CCCC1c1cccnc1 (centres unmarked) [nicotine]				attention and memory (attention and memory [3]): improved attention and memory in healthy humans; stimulation of dopamine release (dopamine release): stimulates dopamine release in the nucleus accumbens more potently than in striatum; potentiation of dopaminergic effects (dopaminergic effects): potentiate dopaminergic effects in various behavioral models; effects in Tourette's syndrome (Tourette's syndrome): beneficial effects in Tourette's syndrome; protection against cell loss in the substantia nigra (substantia nigra): may protect against cell loss in the substantia nigra; reversal of inactivation of prefrontal neurons (prefrontal neurons): nicotinic reversal of inactivation of prefrontal neurons; attention and memory (attention and memory [4]): improved attention and memory
C[N+](C)(C)CC#CCN1CCCC1=O [^3 H-Oxo, ^3 H-Oxotremorine-M]				Kd ([5]; high affinity site): 0.0018 µM; Kd ([5]; medium affinity site): 0.02 µM; Kd ([5]; third (lowest affinity) site, not determined under present conditions): 3 µM
CNC1(C)C2CCC(C2)C1(C)C (centres unmarked) [mecamylamine]				cognitive impairment (cognitive function): cause cognitive impairment in an age related way

Continued, in another order:

Oxo/MCC Ratio [1]	IC50 [1] [µM]	IC50 [2] [µM]	SMILES	further results
130	0.04	5.2	CCCNc1oncc1C1=CCCN(C)C1.O=C(O)C(=O)O [Compound 7, 3-(5-Propylamino-4-isoxazolyl)-1,2,5,6-tetrahydro-1-methylpyridine oxalate]	
47	0.085	4	CN1CCC=C(c2cnoc2NCc2ccccc2)C1.O=C(O)C(=O)O [Compound 14, 3-(5-Benzylamino-4-isoxazolyl)-1,2,5,6-tetrahydro-1-methylpyridine oxalate]	
23	0.062	1.4	CCNc1oncc1C1=CCCN(C)C1.O=C(O)C(=O)O [Compound 5, 3-(5-ethylamino-4-isoxazolyl)-1,2,5,6-tetrahydro-1-methylpyridine oxalate]	
19	0.23	4.4	CNc1oncc1C1=CCCN(C)C1.O=C(O)C(=O)O [Compound 3, 3-(5-methylamino-4-isoxazolyl)-1,2,5,6-tetrahydro-1-methylpyridine oxalate]	
